Reference: publication PMC9291521 (Frontiers in Chemistry, 2022)
Like-named read-outs stand apart in the source and are kept apart here. Residues, ends and D or L forms follow the SMILES beside them. *: point of attachment. Cbz = O=C(OCc1ccccc1)*

What was measured:
SARS-CoV-2 3CL protease = SARS-CoV-2 3CL protease (Severe acute respiratory syndrome coronavirus 2, UniProt P0DTD1); experiment: Kinetic assay of SARS-CoV-2 3CL-PR inhibition (FRET substrate); assay type: biochemical; settings: after 30-min incubation; pH 7.2; read-out: Ki* 3CLpro
human cathepsin L [1] = biological target: T1, human cathepsin L (Homo sapiens, UniProt P07711); settings: for fold more potent for human cathepsin L than for cruzain (Ki*): hCatL vs cruzain; for Ki: read-out: Ki* hCatL, after 30-min incubation, pH 5.5, fit of vs/v0 to Eq. 5
T1 sequence (P07711 114-333): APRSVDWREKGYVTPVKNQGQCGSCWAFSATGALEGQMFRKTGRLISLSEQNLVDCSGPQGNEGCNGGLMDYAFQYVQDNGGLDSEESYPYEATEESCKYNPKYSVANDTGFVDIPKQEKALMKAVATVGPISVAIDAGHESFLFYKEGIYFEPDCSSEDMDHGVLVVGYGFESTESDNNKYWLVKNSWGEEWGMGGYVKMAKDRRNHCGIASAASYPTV
Description: (§1) Recombinant proteases were obtained from the following vendors: recombinant human cathepsin L (Millipore Sigma, Athens Research and Technology, Inc.), and human liver cathepsin B (Millipore Sigma), which were used without further purification. […] These samples were then diluted into the same buffer to concentrations of ∼100 nM, and these dilutions were stored at 4°C and used daily until depletion.
(§2) For assays of cathepsin L and B, inhibitors were evaluated in 0.25-ml reaction mixtures containing a buffer of sodium acetate (pH 5.5), 1 mM CHAPS, 1 mM Na2EDTA, and 5 mM DTT at 25°C. The fluorogenic substrate Cbz-Phe-Arg-7-amino-4-methyl-coumarin (Z-FR-AMC) was dissolved in 100% DMSO, as were all inhibitors and aliquots of both substrates, and inhibitors were added to the reaction mixtures with final concentrations of DMSO of 10% (v/v). […] Formation of the fluorescent product AMC was monitored over 30–60-min time courses for reaction mixtures in 96-well black microplates (Greiner). Rates of peptidolysis of the dipeptide-AMC substrate(s) were measured on either a SpectraMax M2 (Molecular Devices) or a Synergy Mx (Biotek, Wisnooki, VT) microplate reader which measured the formation of fluorescence using an excitation wavelength of λex = 360 nm, with detection of emission at λem = 460 nm at ≥8-s intervals. Control samples excluded substrate. The measured relative fluorescence units (RFUs) of generated AMC were converted to reaction rates of μM/s by use of a standard curve of known AMC concentrations obtained for both plate readers.

[2] = tested on: SARS-CoV-2-infected Vero E6 cells; experiment: Micro-neutralization assay, virus-induced cytopathic effect in Vero E6 cells; assay type: cell-based
[3] = tested on: SARS-CoV-2-infected A549/ACE2 cells; experiment: microbe, parasite or virus in culture; assay type: cell-based
cruzain = settings: pH 7.5; ref Li et al., 2021; cited from earlier work
human cathepsin L [4] = biological target: T1, human cathepsin L; experiment: biochemical
Description: as §1, §2

human cathepsin B = biological target: T2, human cathepsin B (Homo sapiens, UniProt P07858); experiment: Kinetic assay of human cathepsin B inhibition (Z-FR-AMC peptidolysis); assay type: biochemical; settings: after 30-min incubation; pH 5.5; read-out: Ki* hCatB
T2 construct: purchased Millipore Sigma; host or cells: human liver (so in the source)

[5] = tested on: SARS-CoV-2-infected Vero E6 cells; settings: cited from earlier work
[6] = tested on: SARS-CoV-2-infected A549/ACE2 cells; settings: read-out: Anti-CoV-2 EC50 A549/ACE2 Cells, cited from earlier work
[7] = Severe acute respiratory syndrome coronavirus 2, Vero C1008, 72 h, prevention of CPE, 3 days, read-out: Anti-CoV-2 EC50 Vero E6 Cells
[8] = Severe acute respiratory syndrome coronavirus 2, A549-ACE2, 96 h, read-out: Anti-CoV-2 EC50 A549/ACE2 Cells
[9] = Ki (initial EI complex), fit of vi/v0 vs. [I] to Eq. 4
[10] = Ki* hCatL, after 30-min incubation, pH 5.5, fit of vs/v0 to Eq. 5
[11] = previously reported, ref Li et al., 2021
[12] = Severe acute respiratory syndrome coronavirus 2, A549-ACE2, 96 h, prevention of CPE, 4 days, read-out: Anti-CoV-2 EC50 A549/ACE2 Cells
[13] = Severe acute respiratory syndrome coronavirus 2, A549-ACE2, read-out: EC50 A549/ACE2 cells

| SMILES | Ki (SARS-CoV-2 3CL protease) [nM] | EC50 [2, 7] [nM] | Ki (cruzain) [nM] | Ki (human cathepsin B) [nM] | Ki (human cathepsin L [1]) [nM] | also measured |
| --- | --- | --- | --- | --- | --- | --- |
| O=C[C@H](Cc1ccccc1)NC(=O)[C@H](Cc1ccccc1)NC(=O)OCc1ccccc1 [Compound 1, Cbz-Phe-Phe-CHO] (Cbz-Phe-Phe-aldehyde) | > 10000 | 470 | 0.44 ± 0.02 | – | – | fold more potent for human cathepsin L than for cruzain (Ki*) (human cathepsin L [1]): 3 fold; EC50 ([2]; Severe acute respiratory syndrome coronavirus 2, Vero C1008, repeat of the experiment with a different sample of 1, read-out: Anti-CoV-2 EC50 Vero E6 Cells): 7500 nM; EC50 [3, 8]: > 20000 nM; Ki (human cathepsin L [4]; [9]): 0.18 ± 0.22 nM; Ki (human cathepsin L [4]; [10]): 0.14 ± 0.01 nM |
| O=C(N[C@@H](Cc1ccccc1)C(=O)N[C@H]1Cc2ccccc2OC1O)OCc1ccccc1 (stereo partly drawn) [Compound 2, Cbz-Phe-o-Tyr-CHO] | > 10000 | 10000 ± 5000 | 49 ± 2 | 4500 | – | fold faster k4 than aldehyde 1 (human cathepsin L [1]; conversion of EI* to EI): ~5 fold; fold more potent for human cathepsin L than for cruzain (Ki*) (human cathepsin L [1]): 3.9 fold; k4 (reversion of EI* to EI) (human cathepsin L [1]; intercept of kobs vs. [I], fit to Eq. 3): 0.0016 ± 0.0002 s⁻¹; fold less potent inhibitor of cathepsin L than 1 (Ki*) (human cathepsin L [1]; relative to aldehyde 1): 100 fold; EC50 [3, 8]: > 20000 nM; Ki (human cathepsin L [4]; [9]): 54 ± 6 nM; Ki (human cathepsin L [4]; [10]): 12.6 ± 0.4 nM; Ki (human cathepsin L [4]; k4Ki/k3 ∼ Ki*, calculated from the Eq. 3 parameters): ~200 nM |
| COc1ccc2c(c1)C[C@H](NC(=O)[C@H](Cc1ccccc1)NC(=O)OCc1ccccc1)C(O)O2 (stereo partly drawn) [Compound 3] | > 10000 | – | 350 ± 30 | 5500 | 17 ± 0.9 | fold increase in Ki* compared to 2 (human cathepsin L [1]; cathepsin L): 1.4 fold |
| Cc1ccc2c(c1)C[C@H](NC(=O)[C@H](Cc1ccccc1)NC(=O)OCc1ccccc1)C(O)O2 (stereo partly drawn) [Compound 4] | > 10000 | – | 103 ± 5 | 6100 | 26 ± 0.9 | fold increase in Ki* compared to 2 (human cathepsin L [1]; cathepsin L): 2 fold |
| O=C(N[C@@H](Cc1ccccc1)C(=O)N[C@H]1Cc2cc(Cl)ccc2OC1O)OCc1ccccc1 (stereo partly drawn) [Compound 5] | > 10000 | – | 70 ± 10 | 1400 ± 100 | 12.1 ± 0.3 | – |
| O=C(N[C@@H](Cc1ccccc1)C(=O)N[C@H]1Cc2cc(F)ccc2OC1O)OCc1ccccc1 (stereo partly drawn) [Compound 6] | > 10000 | 4000 | 48 ± 2 | 2300 | 10.3 ± 0.5 | – |
| COC(=O)c1ccc2c(c1)C[C@H](NC(=O)[C@H](Cc1ccccc1)NC(=O)OCc1ccccc1)C(O)O2 (stereo partly drawn) [Compound 7] | > 10000 | 2500 | 18 ± 0.5 | 670 ± 30 | 4.8 ± 0.2 | fold improved potency over 2 (human cathepsin L [1]; cathepsin L): 2.6 fold |
| CN1CCN(C(=O)NC(Cc2ccccc2)C(=O)NC2Cc3ccccc3OC2O)CC1 (stereo not drawn) [Compound 8, NMe-Pip-Phe-o-Tyr-CHO] | > 10000 | 9000 ± 2000 | 47 ± 2 | 1270 ± 70 | – | anti-viral effect in infected A549/ACE2 cells ([3]; in words): no anti-viral effect; Ki (human cathepsin L [4]; [9]): 22 ± 1 nM; Ki (human cathepsin L [4]; [10]): 9 ± 0.4 nM |
| CC(C)[C@H](NC(=O)OCc1ccccc1)C(=O)N[C@@H](CC1CCCCC1)C(=O)N[C@H]1Cc2cccnc2OC1O (stereo partly drawn) [Compound 9] | 9 ± 2 | – | – | – | – | effect in SARS-CoV-2-infected Vero E6 cells [5, 11]: no effect; EC50 [6, 11]: 3750 nM; Ki (human cathepsin L [4]; [10]): 22 ± 4 nM |
| CC(=O)OC1Oc2ccccc2CC1NC(=O)C(Cc1ccccc1)NC(=O)N1CCN(C)CC1 (stereo not drawn) [Compound 10] | – | 2500 | – | – | – | EC50 [3, 12]: 310 nM; EC50 [3, 13]: 312 nM |
| CCC(=O)OC1Oc2ccccc2CC1NC(=O)C(Cc1ccccc1)NC(=O)N1CCN(C)CC1 (stereo not drawn) [Compound 11] | – | 2500 | – | – | – | EC50 [3, 12]: 620 nM; EC50 [3, 13]: 625 nM |
| CC(C)C(=O)OC1Oc2ccccc2CC1NC(=O)C(Cc1ccccc1)NC(=O)N1CCN(C)CC1 (stereo not drawn) [Compound 12] | – | 3750 | – | – | – | EC50 ([2]; prevention of CPE, 3 days, read-out: Anti-CoV-2 EC50 Vero E6 Cells): 4000 nM; EC50 [3, 12]: 310 nM; EC50 [3, 13]: 156 nM |
| CN1CCN(C(=O)N[C@@H](Cc2ccccc2)C(=O)N[C@H](/C=C/S(=O)(=O)c2ccccc2)CCc2ccccc2)CC1 [Compound K777] | – | – | – | – | – | EC50 ([5]; previously found, ref Mellott et al., 2021, read-out: EC50 Vero E6 cells): 625 nM; EC50 ([5]; ref Mellott et al. (2021), read-out: Anti-CoV-2 EC50 Vero E6 Cells): 620 nM; EC50 ([6]; ref Mellott et al. (2021)): < 78 nM; EC50 ([2]; Severe acute respiratory syndrome coronavirus 2, Vero C1008, 72 h, read-out: Anti-CoV-2 EC50 Vero E6 Cells): 150 nM; EC50 ([2]; Severe acute respiratory syndrome coronavirus 2, Vero C1008, read-out: EC50 Vero E6 cells): 156 nM |
| CC(C)(C)[C@H](NC(=O)C(F)(F)F)C(=O)N1C[C@H]2[C@@H]([C@H]1C(=O)N[C@H](C#N)C[C@@H]1CCNC1=O)C2(C)C [PF-07321332, reference compound] | – | > 20000 | – | – | – | EC50 ([5]; ref Owen et al. (2021), read-out: Anti-CoV-2 EC50 Vero E6 Cells): 74 nM; EC50 ([6]; ref Owen et al. (2021)): 77 nM; EC50 [3, 8]: 470 nM |
